Results reported in patent US10844049B2, “GLP-1R agonists and uses thereof” (QILU REGOR THERAPEUTICS INC., priority 2018, dated 2020).

Key:
GLP1R [1] = biological target: T1, GLP1R (Homo sapiens, UniProt P43220); assay: GLP1R cAMP HTRF assay, HEK293/GLP-1R/CRE/Luc (HEK293T cells); format: cell-based
Summary of the method: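 cAMP accumulation via HTRF after 30 min, 37 °C exposure of 1000 receptor-expressing cells/well to compound (0.5% DMSO final) in IBMX (500 μM)/0.1% BSA DPBS.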

GLP1R [2] = biological target: T1, GLP1R; assay: GLP1R cAMP assay, CHO cells stably expressing human GLP-1R; format: cell-based
Method: GLP-1R-mediated agonist activity was determined with a cell-based functional assay utilizing an HTRF (Homogeneous Time-Resolved Fluorescence) cAMP detection kit (cAMP Dynamic 2 Assay Kit; CisBio cat #62AM4PEC) that measures cAMP levels in the cell. The method is a competitive immunoassay between native cAMP produced by the cells and exogenous cAMP labeled with the dye d2. The tracer binding is visualized by a mAb anti-cAMP labeled with Cryptate. The specific signal (i.e., energy transfer) is inversely proportional to the concentration of cAMP in either standard or experimental sample.
Varying concentrations of each compound to be tested (in DMSO) were diluted in DMSO to obtain 200× compound working solution first and then 50 nl compounds were added to a white 384-well assay plate (Greiner 784075) with ECHO. The final DMSO concentration was 0.5%. The compound concentration range may be adjusted at any time.
Cells were removed from cryopreservation, re-suspended in 5 mL of Dulbecco's Phosphate Buffered Saline (DPBS-Sigma Cat # D8537) and centrifuged at 900 g for 5 min at 22° C. The cell pellet was then re-suspended in 1 mL of assay buffer [DPBS with 500 μM IBMX (Sigma #15879) and 0.1% BSA (Sigma # A1933). IBMX and BSA were freshly added on the day of assay]. A 10 μL sample of the cell suspension was counted on an Invitrogen Countess II to determine cell viability and cell count per mL. The remaining cell suspension was then adjusted with assay buffer to deliver 1000 viable cells per well using a Matrix Combi Multidrop reagent dispenser. 10 μL cell suspensions were added to each well of the assay plate which already contains compound. The plate was sealed and incubated at 37° C. with 5% CO2 for 30 minutes.
Following the 30 minute incubation, 5 μL of labeled d2 cAMP and 5 μL of anti-cAMP antibody (both diluted 1:20 in cell lysis buffer; as described in the manufacturer's assay protocol) were added to each well of the assay plate. The plates w ere then incubated at room temperature and after 60 minutes, changes in the HTRF signal were read with an Envision multi-label plate reader using excitation of 330 nm and emissions of 615 and 665 nm. Raw data were converted to nM cAMP by interpolation from a cAMP standard curve (as described in the manufacturer's assay protocol) and the percent effect was determined relative to a saturating concentration of the full agonist GLP-17-37 (10 nM) included on each plate. EC50 determinations were made from agonist dose-response curves analyzed with a curve fitting program using a 4-parameter logistic dose response equation. […]

[3] = CHO cells stably expressing GLP-1R, read-out: CHO cAMP stable EC50
[4] = mean ± spread, read-out: HEK293T cells EC50
[5] = CHO cells, mean ± spread, read-out: CHO cells EC50

T1 sequence (P43220 24-463): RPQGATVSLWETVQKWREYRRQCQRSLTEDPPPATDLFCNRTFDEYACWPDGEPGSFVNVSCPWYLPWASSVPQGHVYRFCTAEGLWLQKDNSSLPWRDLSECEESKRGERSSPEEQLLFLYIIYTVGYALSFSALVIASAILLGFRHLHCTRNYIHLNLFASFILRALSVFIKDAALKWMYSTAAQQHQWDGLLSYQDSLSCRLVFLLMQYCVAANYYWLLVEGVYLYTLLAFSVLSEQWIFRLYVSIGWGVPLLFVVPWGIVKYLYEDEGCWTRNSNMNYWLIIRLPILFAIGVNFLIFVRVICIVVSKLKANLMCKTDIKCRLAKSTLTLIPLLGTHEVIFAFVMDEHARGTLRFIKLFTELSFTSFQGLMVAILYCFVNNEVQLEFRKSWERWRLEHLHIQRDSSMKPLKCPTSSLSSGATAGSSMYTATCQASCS

Molecule | EC50 (GLP1R [1]; read-out: EC50) | EC50 (GLP1R [2]; [3]) | EC50 (GLP1R [1]; [4]) | EC50 (GLP1R [2]; [5])
N#Cc1ccc(COc2cccc(N3CCC(Cc4nc5ccc(C(=O)O)nc5n4C[C@@H]4CCO4)CC3)n2)c(F)c1 [Compound 227, (S)-2-((l-(6-((4-cyano-2-fluorobenzyl)oxy)pyridin-2-yl)piperidin-4-yl)methyl)-3-(oxetan-2-ylmethyl)-3H-imidazo[4,5-b]pyridine-5-carboxylic acid] | ≤ 15 nM | ≤ 150 nM |  | 
N#Cc1ccc(COc2cccc(N3CCC(Cc4nc5ccc(C(=O)O)c(F)c5n4C[C@@H]4CCO4)CC3)n2)c(F)c1 [Compound 228, (S)-2-((l-(6-((4-cyano-2-fluorobenzyl)oxy)pyridin-2-yl)piperidin-4-yl)methyl)-7-fluoro-1-(oxetan-2-ylmethyl)-1H-benzo[d]imidazole-6-carboxylic acid] | ≤ 15 nM | ≤ 150 nM |  | 
N#Cc1ccc(COc2cccc(N3CCN(Cc4nc5ccc(C(=O)O)nc5n4C[C@@H]4CCO4)CC3=O)n2)c(F)c1 [Compound 234, (S)-2-((4-(6-(4-cyano-2-fluorobenzyloxy)pyridin-2-yl)-3-oxopiperazin-1-yl)methyl)-3-(oxetan-2-ylmethyl)-3H-imidazo[4,5-b]pyridine-5-carboxylic acid] | ≤ 150 nM |  |  | 
N#Cc1ccc(COc2cccc(N3CC=C(Cc4nc5ccc(C(=O)O)cc5n4C[C@@H]4CCO4)CC3)n2)c(F)c1 [Compound 240, (S)-2-((6′-((4-cyano-2-fluorobenzyl)oxy)-3,6-dihydro-2H-[1,2′-bipyridin]-4-yl)methyl)-1-(oxetan-2-ylmethyl)-1H-benzo[d]imidazole-6-carboxylic add] | ≤ 150 nM |  |  | 
Cn1cnc2ccc(COc3cccc(C4=CCN(Cc5nc6ccc(C(=O)O)cc6n5C[C@@H]5CCO5)CC4)n3)cc21 [Compound 241, (S)-2-((6-((1-methyl-1H-benzo[d]imidazol-6-yl)methoxy)-3′,6′-dihydro-[2,4′-bipyridin]-(2′H)-yl)methyl)-1-(oxetan-2-ylmethyl)-1H-benzo[d]imidazole-6-carboxylic add] | ≤ 150 nM |  |  | 
O=C(O)c1ccc2nc(CN3CC=C(c4cccc(OCc5ccc(-n6nccn6)cc5)n4)CC3)n(C[C@@H]3CCO3)c2c1 [Compound 243, (S)-2-((6-((4-(2H-1,2,3-triazol-2-yl)benzyl)oxy)-3′,6′-dihydro-[2,4′-bipyridin]-1′(2′H)-yl)methyl)-1-(oxetan-2-ylmethyl)-1H-benzo[d]imidazole-6-carboxylic add] | ≤ 150 nM |  |  | 
O=C(O)c1ccc2nc(CN3CC=C(c4cccc(OCc5ccc(-n6ccnn6)cc5)n4)CC3)n(C[C@@H]3CCO3)c2c1 [Compound 244, (S)-2-((6-((4-(1H-1,2,3-triazol-1-yl)benzyl)oxy)-3′,6′-dihydro-[2,4′-bipyridin]-1′(2′H)-yl)methyl)-1-(oxetan-2-ylmethyl)-1H-benzo[d]imidazole-6-carboxylic add] | ≤ 15 nM |  |  | 
O=C(O)c1ccc2nc(CN3CC=C(c4ccnc(OCc5ccc(Cl)cc5F)n4)CC3)n(C[C@@H]3CCO3)c2c1 [drawing 59] |  |  | 1.8 nM | 73.7 nM
O=C(O)c1ccc2nc(CN3CC=C(c4cncc(OCc5ccc(Cl)cc5F)n4)CC3)n(C[C@@H]3CCO3)c2c1 [drawing 61] |  |  | 2.94 nM | 136 ± 32.6 nM
O=C(O)c1ccc2nc(CN3CC=C(c4cccc(OCc5ccc(Cl)cc5F)n4)CC3)n(C[C@@H]3CCO3)c2c1 [drawing 65] |  |  | 0.393 nM | 3.28 nM
O=C(O)c1ccc2nc(CN3CC=C(c4cccc(OCc5ccc(Cl)cc5F)c4)CC3)n(C[C@@H]3CCO3)c2c1 [drawing 67] |  |  | 3.94 nM | 42.6 ± 11.5 nM
N#Cc1ccc(COc2cccc(C3=CCN(Cc4nc5ccc(C(=O)O)nc5n4C[C@@H]4CCO4)CC3)n2)c(F)c1 [drawing 69] |  |  | 0.168 nM | 3.86 nM
(S)-2-((4-(2-((4-(cyclopropylethynyl)-2-fluorobenzyl)oxy)pyrimidin-4-yl)piperazin-1-yl)methyl)-1-(oxetan-2-ylmethyl)-1H-benzo[d]imidazole-6-carboxylic add [Compound 194] | ≤ 150 nM |  |  | 
(S)-2-((4-(3-((4-cyano-2-fluorobenzyl)oxy)-5-fluorophenyl)-5,6-dihydropyridin-1(2H)-yl)methyl)-1-(oxetan-2-ylmethyl)-1H-benzo[d]imidazole-6-carboxylic add [Compound 218] | ≤ 150 nM |  |  | 

Now from value to molecule:

EC50 (GLP1R [1]; read-out: EC50) | EC50 (GLP1R [2]; [3]) | EC50 (GLP1R [1]; [4]) | EC50 (GLP1R [2]; [5]) | Molecule
≤ 1000 nM |  |  |  | CC1(C)CN(Cc2nc3ccc(C(=O)O)cc3n2C[C@@H]2CCO2)CC=C1c1cccc(OCc2ccc(C#N)cc2F)n1 [Compound 235, (S)-2-((6-((4-cyano-2-fluorobenzyl)oxy)-3′,3′-dimethyl-3′,6′-dihydro-[2H′-bipyridin]-1′(2′H)yl)methyl)-1-(oxetan-2-ylmethyl)-1H-benzo[d]imidazole-6-carboxylic add]
 |  | 0.219 nM | 2.25 nM | N#Cc1ccc(COc2cccc(C3=CCN(Cc4nc5ccc(C(=O)O)cc5n4C[C@@H]4CCO4)CC3)n2)c(F)c1 [drawing 55]
 |  | 0.517 nM | 6.05 nM | N#Cc1ccc(COc2nc(C3=CCN(Cc4nc5ccc(C(=O)O)cc5n4C[C@@H]4CCO4)CC3)ccc2F)c(F)c1 [drawing 57]
 |  | 1.98 nM | 95.8 nM | O=C(O)c1ccc2nc(CN3CCC(c4ccnc(OCc5ccc(Cl)cc5F)n4)CC3)n(C[C@@H]3CCO3)c2c1 [drawing 58, reference compound]
 |  | 10.5 nM | 289 ± 53 nM | O=C(O)c1ccc2nc(CN3CCC(c4cncc(OCc5ccc(Cl)cc5F)n4)CC3)n(C[C@@H]3CCO3)c2c1 [drawing 60, reference compound]
 |  | 15.9 nM | 924 ± 230 nM | N#Cc1ccc(COc2cncc(C3CCN(Cc4nc5ccc(C(=O)O)cc5n4C[C@@H]4CCO4)CC3)n2)c(F)c1 [drawing 62, reference compound]
 |  | 9.85 nM | 260 ± 38 nM | N#Cc1ccc(COc2cncc(C3=CCN(Cc4nc5ccc(C(=O)O)cc5n4C[C@@H]4CCO4)CC3)n2)c(F)c1 [drawing 63]
 |  | 8.58 nM | 105 ± 32.7 nM | O=C(O)c1ccc2nc(CN3CCC(c4cccc(OCc5ccc(Cl)cc5F)c4)CC3)n(C[C@@H]3CCO3)c2c1 [drawing 66, reference compound]
 |  | 5.65 nM | 463 nM | N#Cc1ccc(COc2nc(C3CCN(Cc4nc5ccc(C(=O)O)cc5n4C[C@@H]4CCO4)CC3)ccc2F)c(F)c1 [reference compound]
 |  | 0.412 nM | 7.65 nM | O=C(O)c1ccc2nc(CN3CCC(c4cccc(OCc5ccc(Cl)cc5F)n4)CC3)n(C[C@@H]3CCO3)c2c1 [reference compound]
 |  | 0.3 nM | 3.5 nM | N#Cc1ccc(COc2cccc(C3CCN(Cc4nc5ccc(C(=O)O)nc5n4C[C@@H]4CCO4)CC3)n2)c(F)c1 [reference compound]
